Laboratory results: ChEMBL document CHEMBL3603776, “2-Phenoxy-1,4-naphthoquinones: From a Multitarget Antitrypanosomal to a Potential Antitumor Profile” (J Med Chem, 2015)
pIC50: −log10 of the molar value. Calls of active or inactive are those of the source. No cut-off for these calls is given here.

How the values were obtained:
Bos taurus [1] = species: Bos taurus; assay: Inhibition of electron transport protein complex 2 in bovine hear mitochondria assessed as reduction of succinate-induced oxygen consumption at 5 uM
[2] = Selectivity index, ratio of IC50 for rat L6 cells to IC50 for trypomastigote forms of Trypanosoma cruzi Tulahuen C4; assay type: toxicity, cell-based; conditions: read-out: Ratio IC50
[3] = Selectivity index, ratio of IC50 for rat L6 cells to IC50 for amastigotes of Leishmania donovani MHOM/ET/67/L82; assay type: toxicity, cell-based; conditions: read-out: Ratio IC50
[4] = tested on: Trypanosoma brucei rhodesiense; assay: Antitrypanosomal activity against bloodstream forms of Trypanosoma brucei rhodesiense STIB 900 after 72 hrs by alamar blue assay; assay type: functional, organism-based; conditions: STIB 900, 72 h
Trypanosoma brucei = assay: Inhibition of recombinant Trypanosoma brucei GAPDH assessed as oxidative phosphorylation of D-glyceraldehyde-3-phosphate to 1,3-bisphosphoglycerate at 5 uM by spectrophotometric method relative to 2-phenoxy-1,4-naphthoquinone
Leishmania donovani = assay: Antitrypanosomal activity against amastigotes of Leishmania donovani MHOM/ET/67/L82 after 72 hrs by inverted microscope analysis; assay type: functional, organism-based; conditions: MHOM/ET/67/L82, 72 h
L6 = assay: Cytotoxicity against rat L6 cells after 72 hrs by alamar blue assay; assay type: cell-based; conditions: L6, 72 h
Trypanosoma cruzi = assay: Antitrypanosomal activity against trypomastigote forms of Trypanosoma cruzi Tulahuen C4 expressing LacZ gene infected in rat L6 cells after 96 hrs by inverted microscope analysis; assay type: functional, organism-based; conditions: Tulahuen C4, L6, 96 h
[5] = Selectivity index, ratio of IC50 for rat L6 cells to IC50 for bloodstream forms of Trypanosoma brucei rhodesiense STIB 900; assay type: toxicity, cell-based; conditions: read-out: Ratio IC50
HT-29 [6] = assay: Cytotoxicity against human HT-29 cells after 24 hrs by MTT assay; assay type: functional, cell-based; conditions: HT-29, 24 h
HT-29 [7] = assay: Selectivity index, ratio of IC50 for HDF to IC50 for human HT-29 cells
[8] = Cytotoxicity against HDF after 24 hrs by MTT assay; conditions: Homo sapiens
IGROV-1 [9] = assay: Selectivity index, ratio of IC50 for HDF to IC50 for human IGROV1 cells
Bos taurus [10] = species: Bos taurus; assay: Inhibition of electron transport protein complex 1 in bovine hear mitochondria assessed as reduction of NADH-induced ROS production at 10 uM by fluorescence plate reader analysis
Bos taurus [11] = species: Bos taurus; assay: Inhibition of electron transport protein complex 1 in bovine hear mitochondria assessed as enzyme activity per min/mg of protein using […] as substrate at 10 uM
Bos taurus [12] = species: Bos taurus; assay: Inhibition of electron transport protein complex 1 in bovine hear mitochondria assessed as reduction of NADH-induced oxygen consumption at 5 uM
[13] = Inhibition of recombinant Trypanosoma brucei GAPDH assessed as oxidative phosphorylation of D-glyceraldehyde-3-phosphate to 1,3-bisphosphoglycerate by spectrophotometric method
IGROV-1 [14] = assay: Cytotoxicity against human IGROV1 cells after 24 hrs by MTT assay; assay type: functional, cell-based; conditions: IGROV-1, 24 h
[15] = target: Glyceraldehyde-3-phosphate dehydrogenase (Homo sapiens, UniProt P04406); assay: Inhibition of recombinant human GAPDH assessed as oxidative phosphorylation of D-glyceraldehyde-3-phosphate to 1,3-bisphosphoglycerate by spectrophotometric method
Glyceraldehyde-3-phosphate dehydrogenase, sequence (P04406 whole entry): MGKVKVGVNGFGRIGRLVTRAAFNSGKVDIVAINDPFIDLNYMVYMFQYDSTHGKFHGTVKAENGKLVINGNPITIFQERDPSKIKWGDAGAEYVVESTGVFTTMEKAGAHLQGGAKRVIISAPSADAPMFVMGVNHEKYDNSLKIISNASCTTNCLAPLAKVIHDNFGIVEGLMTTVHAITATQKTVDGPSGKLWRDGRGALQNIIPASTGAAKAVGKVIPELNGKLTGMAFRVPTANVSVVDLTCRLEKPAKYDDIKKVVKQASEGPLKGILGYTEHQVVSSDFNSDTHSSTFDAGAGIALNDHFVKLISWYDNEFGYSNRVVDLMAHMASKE

SMILES | inhibition (Bos taurus [1]) | selectivity ratio [2] | selectivity ratio [3] | pIC50 [4] | inhibition (Trypanosoma brucei) | pIC50 (Leishmania donovani) | pIC50 (L6) | pIC50 (Trypanosoma cruzi) | selectivity ratio [5] | pIC50 (HT-29 [6]) | Ratio IC50 (HT-29 [7]) | pIC50 [8] | Ratio IC50 (IGROV-1 [9]) | inhibition (Bos taurus [10]) | Activity (Bos taurus [11]) | inhibition (Bos taurus [12]) | pIC50 [13] | pIC50 (IGROV-1 [14]) | pIC50 [15]
Cc1ccc(OC2=CC(=O)c3cccc(O)c3C2=O)cc1 | inactive | 0.54 | 1.34 | 5.59 | 44% | 5.52 | 5.39 | 5.13 | 1.56 | – | – | – | – | – | – | – | – | – | –
O=C1C=C(Oc2ccccc2)C(=O)c2c(O)cccc21 | inactive | – | 0.51 | 6.07 | 84% | 5.53 | 5.82 | – | 1.76 | – | – | – | – | – | – | – | – | – | –
COc1cccc2c1C(=O)C=C(Oc1ccc(C)cc1)C2=O | inactive | – | 0.57 | 6.26 | 40% | 5.58 | 5.83 | – | 2.71 | – | – | – | – | – | – | – | – | – | –
Cc1ccc(OC2=CC(=O)c3ccccc3C2=O)cc1 | inactive | 2.35 | 1.12 | 5.64 | 24% | 5.47 | 5.42 | 5.79 | 1.67 | – | – | – | – | – | – | – | – | – | –
COc1cccc2c1C(=O)C(Oc1ccc(NC(C)=O)cc1)=CC2=O | inactive | – | 0.11 | 5.38 | 64% | 5.23 | 6.19 | – | 0.16 | – | – | – | – | – | – | – | – | – | –
CCCCCCCCCCCCCCCCOP(=O)([O-])OCC[N+](C)(C)C [MILTEFOSINE] | – | – | 462 | – | – | – | – | – | – | – | – | – | – | – | – | – | – | – | –
COc1ccc(OC2=CC(=O)c3cccc(OC)c3C2=O)cc1 | inactive | – | 0.05 | 5.22 | 48% | 4.65 | 5.96 | – | 0.18 | – | – | – | – | – | – | – | – | – | –
CC(=O)Nc1ccc(OC2=CC(=O)c3cc4ccccc4cc3C2=O)cc1 | inactive | – | 0.06 | 5.92 | 90% | 5.49 | 6.72 | – | 0.16 | – | – | – | – | – | – | – | – | – | –
O=C(Cn1ccnc1[N+](=O)[O-])NCc1ccccc1 [BENZNIDAZOLE] | – | – | – | – | – | – | < 3.42 | – | – | – | – | – | – | – | – | – | – | – | –
CC(=O)Nc1ccc(OC2=CC(=O)c3ccccc3C2=O)cc1 | inactive | 0.8 | 0.83 | 5.62 | 68% | 5.39 | 5.47 | 5.38 | 1.39 | – | – | – | – | – | – | – | – | – | –
Nc1nc(N)nc(Nc2ccc([As]3SCC(CO)S3)cc2)n1 (centres undefined) [MELARSOPROL] | – | – | – | – | – | – | – | – | 1830 | – | – | – | – | – | – | – | – | – | –
COc1cccc2c1C(=O)C=C(Oc1ccc(NC(C)=O)cc1)C2=O | inactive | 1.2 | 1.02 | 6.17 | 52% | 5.32 | 5.31 | 5.39 | 7.3 | – | – | – | – | – | – | – | – | – | –
COc1cccc2c1C(=O)C(Oc1ccc(C)cc1)=CC2=O | inactive | – | 0.07 | 5.66 | 20% | 4.96 | 6.12 | – | 0.34 | – | – | – | – | – | – | – | – | – | –
O=C1C(Oc2ccc(F)cc2)=CC(=O)c2c(O)cccc21 | inactive | – | 0.47 | 5.57 | 136% | 5.52 | 5.85 | – | 0.52 | – | – | – | – | – | – | – | – | – | –
COc1cccc2c1C(=O)C=C(Oc1ccc(F)cc1)C2=O | inactive | – | 0.36 | 6.17 | 120% | 5.43 | 5.87 | – | 1.99 | – | – | – | – | – | – | – | – | – | –
Cc1ccc(OC2=CC(=O)c3c(O)cccc3C2=O)cc1 | inactive | – | 0.19 | 5.63 | 40% | 5.26 | 5.99 | – | 0.44 | – | – | – | – | – | – | – | – | – | –

SMILES | inhibition (Bos taurus [1]) | selectivity ratio [2] | selectivity ratio [3] | pIC50 [4] | inhibition (Trypanosoma brucei) | pIC50 (Leishmania donovani) | pIC50 (L6) | pIC50 (Trypanosoma cruzi) | selectivity ratio [5] | pIC50 (HT-29 [6]) | Ratio IC50 (HT-29 [7]) | pIC50 [8] | Ratio IC50 (IGROV-1 [9]) | inhibition (Bos taurus [10]) | Activity (Bos taurus [11]) | inhibition (Bos taurus [12]) | pIC50 [13] | pIC50 (IGROV-1 [14]) | pIC50 [15]
Cc1ccc(OC2=CC(=O)c3cc4ccccc4cc3C2=O)cc1 | inactive | – | 0.11 | 6.14 | 0% | 5.94 | 6.89 | – | 0.17 | – | – | – | – | – | – | – | – | – | –
CC(=O)Nc1ccc(OC2=CC(=O)c3cccc(O)c3C2=O)cc1 | inactive | – | 0.07 | 6.19 | 48% | 5.63 | 6.82 | – | 0.24 | – | – | – | – | – | – | – | – | – | –
COc1ccc(OC2=CC(=O)c3c(O)cccc3C2=O)cc1 | inactive | – | 0.5 | 5.84 | 24% | 5.68 | 5.98 | – | 0.73 | – | – | – | – | – | – | – | – | – | –
O=C1C=C(Oc2ccc(F)cc2)C(=O)c2ccccc21 | inactive | 1.15 | 2.47 | 5.39 | 80% | 5.74 | 5.35 | 5.41 | 1.11 | – | – | – | – | – | – | – | – | – | –
COc1cccc2c1C(=O)C(Oc1ccc(F)cc1)=CC2=O | inactive | – | 0.13 | 5.32 | – | 5.22 | 6.11 | – | 0.16 | 5.57 | 4.4 | 4.92 | 6.87 | Active | 0.053 µmol/min/mg | 40% | 5.00 | 5.76 | 5.87
CC(=O)Nc1ccc(OC2=CC(=O)c3c(O)cccc3C2=O)cc1 | inactive | – | 0.15 | 5.66 | 0% | 5.42 | 6.23 | – | 0.27 | – | – | – | – | – | – | – | – | – | –
COc1ccc(OC2=CC(=O)c3cccc(O)c3C2=O)cc1 | inactive | – | 0.33 | 5.77 | 76% | 5.50 | 5.98 | – | 0.61 | – | – | – | – | – | – | – | – | – | –
O=C1C(Oc2ccccc2)=CC(=O)c2c(O)cccc21 | inactive | – | 0.03 | 5.35 | 88% | 5.08 | 6.59 | – | 0.06 | 5.62 | 6.2 | 4.82 | 5.96 | Active | – | 40% | 4.94 | 5.60 | 5.62
COc1cccc2c1C(=O)C=C(Oc1ccccc1)C2=O | inactive | – | 0.33 | 6.17 | 88% | 5.25 | 5.73 | – | 2.74 | – | – | – | – | – | – | – | – | – | –
O=C1C=C(Oc2ccccc2)C(=O)c2cc3ccccc3cc21 | – | – | – | – | 68% | – | – | – | – | – | – | – | – | – | – | – | – | – | –
COc1cccc2c1C(=O)C(Oc1ccccc1)=CC2=O | inactive | – | 0.05 | 5.75 | 72% | 4.88 | 6.19 | – | 0.36 | – | – | – | – | – | – | – | – | – | –
COc1cc([C@@H]2c3cc4c(cc3[C@H](O)[C@H]3COC(=O)[C@H]23)OCO4)cc(OC)c1OC [PODOFILOX] | – | – | – | – | – | – | 8.70 | – | – | – | – | – | – | – | – | – | – | – | –
COc1ccc(OC2=CC(=O)c3ccccc3C2=O)cc1 | inactive | 1.46 | 1.15 | 5.61 | 28% | 5.27 | 5.21 | 5.38 | 2.51 | – | – | – | – | – | – | – | – | – | –
O=C1C=C(Oc2ccc(F)cc2)C(=O)c2c(O)cccc21 | inactive | – | 0.55 | 5.86 | 128% | 5.88 | 6.13 | – | 0.54 | – | – | – | – | – | – | – | – | – | –
O=C1C=C(Oc2ccc(F)cc2)C(=O)c2cc3ccccc3cc21 | inactive | – | 0.5 | 5.92 | 32% | 5.67 | 5.97 | – | 0.88 | – | – | – | – | – | – | – | – | – | –
COc1ccc(OC2=CC(=O)c3c(OC)cccc3C2=O)cc1 | inactive | – | 0.51 | 6.19 | 44% | 5.51 | 5.80 | – | 2.46 | – | – | – | – | – | – | – | – | – | –
